# Assay results from patent US7514443B2, “Substituted pyrazolo[1,5-a]pyrimidines as inhibitors of metabotropic glutamate receptors” (Hoffmann-La Roche Inc., priority 2003, dated 2009).
row,Structure (SMILES),melting point [°C]
1,"Cc1ccc(-c2cc(C(F)(F)F)n3ncc(-c4cccnc4)c3n2)cc1C(F)(F)F [Example 4.26, 5-(4-Methyl-3-trifluoromethyl-phenyl)-3-pyridin-3-yl-7-trifluoromethyl-pyrazolo[1,5-a]pyrimidine]",182
2,"Cc1cc(-c2cc(C(F)(F)F)n3ncc(C#N)c3n2)ccc1Cl [Example 1.15, 5-(4-Chloro-3-methyl-phenyl)-7-trifluoromethyl-pyrazolo[1,5-a]pyrimidine-3-carbonitrile]",216
3,"Fc1cc(-c2cc(C(F)(F)F)n3cnc(-c4ccncc4)c3n2)ccc1C(F)(F)F [Example 8.15, 2-(3-Fluoro-4-trifluoromethyl-phenyl)-8-pyridin-4-yl-4-trifluoromethyl-imidazo[1,5-a]pyrimidine]",267
4,"N#Cc1cnn2c(C(F)(F)F)cc(-c3cccc(F)c3)nc12 [Example 1.8, 5-(3-Fluoro-phenyl)-7-trifluoromethyl-pyrazolo[1,5-a]pyrimidine-3-carbonitrile]",199
5,"Cc1ccc(-c2cc(C(F)(F)F)n3cnc(C#N)c3n2)cc1C(F)(F)F [Example 5.22, 2-(4-Methyl-3-trifluoromethyl-phenyl)-4-trifluoromethyl-imidazo[1,5-a]pyrimidine-8-carbonitrile]",220
6,"FC(F)(F)c1cccc(-c2cc(C(F)(F)F)n3cnc(-c4cccnc4)c3n2)c1 [Example 8.5, 8-Pyridin-3-yl-4-trifluoromethyl-2-(3-trifluoromethyl-phenyl)-imidazo[1,5-a]pyrimidine]",194
7,"Cc1nn2c(C(F)(F)F)cc(-c3ccc(C(F)(F)F)cc3)nc2c1C#N [Example 2.1, 2-Methyl-5-(4-trifluoromethyl-phenyl)-7-trifluoromethyl-pyrazolo[1,5-a]pyrimidine-3-carbonitrile]",184
8,"FC(F)(F)COc1cc(-c2cc(C(F)(F)F)n3cnc(-c4ccncc4)c3n2)ccc1C(F)(F)F [Example 8.32, 8-Pyridin-4-yl-2-[3-(2,2,2-trifluoro-ethoxy)-4-trifluoromethyl-phenyl]-4-trifluoromethyl-imidazo[1,5-a]pyrimidine]",233
9,"Cc1cc(-c2cnn3c(C(F)(F)F)cc(-c4ccc(C(F)(F)F)c(OCC(F)(F)F)c4)nc23)cc(C)n1 [Example 4.51, 3-(2,6-Dimethyl-pyridin-4-yl)-5-[3-(2,2,2-trifluoro-ethoxy)-4-trifluoromethyl-phenyl]-7-trifluoromethyl-pyrazolo[1,5-a]pyrimidine]",245
10,"Cc1cc(-c2cnn3c(C(F)(F)F)cc(-c4ccc(Br)cc4)nc23)ccn1 [Example 4.56, 5-(4-Bromo-phenyl)-3-(2-methyl-pyridin-4-yl)-7-trifluoromethyl-pyrazolo[1,5-a]pyrimidine]",226
11,"FC(F)(F)COc1ccc(-c2cc(C(F)(F)F)n3ncc(-c4cccnc4)c3n2)cc1C(F)(F)F [Example 4.42, 5-(4-Trifluoroethoxy-3-trifluoromethyl-phenyl)-3-pyridin-3-yl-7-trifluoromethyl-pyrazolo[1,5-a]pyrimidine]",181
12,"COc1ccc(-c2cc(C(F)F)n3ncc(-c4ccncc4)c3n2)cc1 [Example 9.5, 7-Difluoromethyl-5-(4-methoxy-phenyl)-3-pyridin-4-yl-pyrazolo[1,5-a]pyrimidine]",206
13,"FC(F)(F)c1ccc(-c2cc(C(F)(F)F)n3cnc(-c4cccnc4)c3n2)cc1 [Example 8.6, 8-Pyridin-3-yl-4-trifluoromethyl-2-(4-trifluoromethyl-phenyl)-imidazo[1,5-a]pyrimidine]",231
14,"N#Cc1cnn2c(C(F)(F)F)cc(-c3ccc(C(F)(F)F)c(F)c3)nc12 [Example 1.17, 5-(3-Fluoro-4-trifluoromethyl-phenyl)-7-trifluoromethyl-pyrazolo[1,5-a]pyrimidine-3-carbonitrile]",184
15,"Cc1ccccc1-c1cc(C(F)(F)F)n2cnc(C#N)c2n1 [Example 5.8, 2-(2-Methyl-phenyl)-4-trifluoromethyl-imidazo[1,5-a]pyrimidine-8-carbonitrile]",151
16,"N#Cc1cnn2c(C(F)(F)F)cc(-c3ccc(Cl)cc3Cl)nc12 [Example 1.4, 5-(2,4-Dichloro-phenyl)-7-trifluoromethyl-pyrazolo[1,5-a]pyrimidine-3-carbonitrile]",180
17,"Cc1ccc(-c2cc(C(F)(F)F)n3cnc(-c4cccnc4)c3n2)cc1C(F)(F)F [Example 8.7, 2-(4-Methyl-3-trifluoromethyl-phenyl)-8-pyridin-3-yl-4-trifluoromethyl-imidazo[1,5-a]pyrimidine]",236
18,"N#Cc1cnn2c(C(F)(F)F)cc(-c3ccc(F)cc3)nc12 [Example 1.9, 5-(4-Fluoro-phenyl)-7-trifluoromethyl-pyrazolo[1,5-a]pyrimidine-3-carbonitrile]",198
19,"Cc1cc(-c2cc(C(F)(F)F)n3cnc(-c4cccnc4)c3n2)ccc1C(F)(F)F [Example 8.8, 2-(3-Methyl-4-trifluoromethyl-phenyl)-8-pyridin-3-yl-4-trifluoromethyl-imidazo[1,5-a]pyrimidine]",173

row,Structure (SMILES),melting point [°C]
1,"N#Cc1ncn2c(C(F)(F)F)cc(-c3cccc(Cl)c3)nc12 [Example 5.3, 2-(3-Chloro-phenyl)-4-trifluoromethyl-imidazo[1,5-a]pyrimidine-8-carbonitrile]",221
2,"Cc1cc(-c2ncn3c(C(F)(F)F)cc(-c4ccc(Cl)c(C)c4)nc23)ccn1 [Example 8.21, 2-(4-Chloro-3-methyl-phenyl)-8-(2-methyl-pyridin-4-yl)-4-trifluoromethyl-imidazo[1,5-a]pyrimidine]",246
3,"Cc1ccc(-c2cc(C(F)(F)F)n3cnc(-c4ccncc4)c3n2)cc1C(F)(F)F [Example 8.16, 2-(4-Methyl-3-trifluoromethyl-phenyl)-8-pyridin-4-yl-4-trifluoromethyl-imidazo[1,5-a]pyrimidine]",222
4,"FC(F)(F)c1ccc(-c2cc(C(F)(F)F)n3ncc(-c4ccccn4)c3n2)cc1 [Example 4.12, 5-(4-Trifluoromethyl-phenyl)-3-pyridin-2-yl-7-trifluoromethyl-pyrazolo[1,5-a]pyrimidine]",202
5,"Cc1cc(-c2cnn3c(C(F)(F)F)cc(-c4ccc(Br)cc4)nc23)cc(C)n1 [Example 4.57, 5-(4-Bromo-phenyl)-3-(2,6-dimethyl-pyridin-4-yl)-7-trifluoromethyl-pyrazolo[1,5-a]pyrimidine]",258
6,"Cc1cc(-c2cnn3c(C(F)(F)F)cc(-c4ccc(C(F)(F)F)c(C(F)(F)F)c4)nc23)ccn1 [Example 4.54, 5-(3,4-Bis-trifluoromethyl-phenyl)-3-(2-methyl-pyridin-4-yl)-7-trifluoromethyl-pyrazolo[1,5-a]pyrimidine]",223
7,"FC(F)(F)c1cccc(-c2cc(C(F)(F)F)n3ncc(-c4ccncc4)c3n2)c1 [Example 4.16, 5-(3-Trifluoromethyl-phenyl)-3-pyridin-4-yl-7-trifluoromethyl-pyrazolo[1,5-a]pyrimidine]",241
8,"Fc1cc(-c2cc(C(F)(F)F)n3ncc(-c4ccncc4)c3n2)ccc1C(F)(F)F [Example 4.17, 5-(3-Fluoro-4-trifluoromethyl-phenyl)-3-pyridin-4-yl-7-trifluoromethyl-pyrazolo[1,5-a]pyrimidine]",262
9,"Cc1cc(-c2ncn3c(C(F)(F)F)cc(-c4ccc(C(F)(F)F)cc4)nc23)ccn1 [Example 8.24, 8-(2-Methyl-pyridin-4-yl)-4-trifluoromethyl-2-(4-trifluoromethyl-phenyl)-imidazo[1,5-a]pyrimidine]",257
10,"N#Cc1ncn2c(C(F)(F)F)cc(-c3cccnc3)nc12 [Example 5.26, 2-Pyridin-3-yl-4-trifluoromethyl-imidazo[1,5-a]pyrimidine-8-carbonitrile]",222
11,"Cc1cc(-c2cnn3c(C(F)(F)F)cc(-c4ccc(F)c(Cl)c4)nc23)ccn1 [Example 4.31, 5-(3-Chloro-4-fluoro-phenyl)-3-(2-methyl-pyridin-4-yl)-7-trifluoromethyl-pyrazolo[1,5-a]pyrimidine]",292
12,"Cc1cc(-c2cnn3c(C(F)(F)F)cc(-c4ccc(F)c(Cl)c4)nc23)cc(C)n1 [Example 4.21, 5-(3-Chloro-4-fluoro-phenyl)-3-(2,6-dimethyl-pyridin-4-yl)-7-trifluoromethyl-pyrazolo[1,5-a]pyrimidine]",271
13,"FC(F)(F)COc1ccc(-c2cc(C(F)(F)F)n3cnc(-c4ccncc4)c3n2)cc1C(F)(F)F [Example 8.18, 8-Pyridin-4-yl-2-[4-(2,2,2-trifluoro-ethoxy)-3-trifluoromethyl-phenyl]-4-trifluoromethyl-imidazo[1,5-a]pyrimidine]",269
14,"CCOc1cc(-c2cc(C(F)(F)F)n3ncc(-c4cc(C)nc(C)c4)c3n2)ccc1C(F)(F)F [Example 4.48, 3-(2,6-Dimethyl-pyridin-4-yl)-5-(3-ethoxy-4-trifluoromethyl-phenyl)-7-trifluoromethyl-pyrazolo[1,5-a]pyrimidine]",257
15,"N#Cc1ncn2c(C(F)(F)F)cc(-c3ccc(Cl)cc3Cl)nc12 [Example 5.7, 2-(2,4-Dichloro-phenyl)-4-trifluoromethyl-imidazo[1,5-a]pyrimidine-8-carbonitrile]",139
16,"FC(F)(F)c1cc(-c2ccc(Cl)cc2)nc2c(-c3cccnc3)ncn12 [Example 8.2, 2-(4-Chloro-phenyl)-8-pyridin-3-yl-4-trifluoromethyl-imidazo[1,5-a]pyrimidine]",206
17,"FC(F)c1cc(-c2ccc(C(F)(F)F)cc2)nc2c(-c3ccncc3)cnn12 [Example 9.1, 7-Difluoromethyl-3-pyridin-4-yl-5-(4-trifluoromethyl-phenyl)-pyrazolo[1,5-a]pyrimidine]",222
18,"Cc1cccc(-c2cc(C(F)(F)F)n3ncc(C#N)c3n2)c1 [Example 1.5, 5-(3-Methyl-phenyl)-7-trifluoromethyl-pyrazolo[1,5-a]pyrimidine-3-carbonitrile]",202
